Laboratory results taken from the NIST ThermoML archive (doi:10.1016/j.jct.2017.10.002).
Values joined by “and” are separate entries in the source; they are usually repeats but may differ in a detail not shown here. Equal entries are not always repeated. ± gives the expanded uncertainty stated by the source.

Settings: 101.33 kPa, relaxation calorimetry

## CCc1ncc[n-]1.CCc1ncc[n-]1.[Zn+2] [zinc(II) 2-ethylimidazolide]
1 K, Glass
  molar entropy: 0.008253 ± 0.00074 J/K/mol
2 K, Glass
  molar entropy: 0.0244 ± 0.002 J/K/mol
3 K, Glass
  molar entropy: 0.06286 ± 0.0052 J/K/mol
4 K, Glass
  molar entropy: 0.1418 ± 0.012 J/K/mol
5 K, Crystal
  molar entropy: 0.3545 ± 0.029 J/K/mol and 0.1203 ± 0.0097 J/K/mol and 0.3132 ± 0.025 J/K/mol
5 K, Glass
  molar entropy: 0.2736 ± 0.022 J/K/mol
6 K, Crystal
  molar entropy: 0.5863 ± 0.047 J/K/mol and 0.2089 ± 0.017 J/K/mol and 0.5177 ± 0.042 J/K/mol
6 K, Glass
  molar entropy: 0.464 ± 0.037 J/K/mol
7 K, Crystal
  molar entropy: 0.8825 ± 0.071 J/K/mol and 0.3306 ± 0.027 J/K/mol and 0.7801 ± 0.063 J/K/mol
7 K, Glass
  molar entropy: 0.7139 ± 0.057 J/K/mol
8 K, Crystal
  molar entropy: 1.241 ± 0.1 J/K/mol and 0.4909 ± 0.039 J/K/mol and 1.099 ± 0.088 J/K/mol
8 K, Glass
  molar entropy: 1.022 ± 0.082 J/K/mol
9 K, Crystal
  molar entropy: 1.66 ± 0.13 J/K/mol and 0.6925 ± 0.056 J/K/mol and 1.472 ± 0.12 J/K/mol
9 K, Glass
  molar entropy: 1.385 ± 0.11 J/K/mol
10 K, Crystal
  molar entropy: 2.135 ± 0.13 J/K/mol and 0.9364 ± 0.057 J/K/mol and 1.895 ± 0.12 J/K/mol
10 K, Glass
  molar entropy: 1.801 ± 0.11 J/K/mol
15 K, Crystal
  molar entropy: 5.252 ± 0.32 J/K/mol and 2.784 ± 0.17 J/K/mol and 4.686 ± 0.29 J/K/mol
15 K, Glass
  molar entropy: 4.579 ± 0.28 J/K/mol
20 K, Crystal
  molar entropy: 9.321 ± 0.57 J/K/mol and 5.606 ± 0.34 J/K/mol and 8.386 ± 0.51 J/K/mol
20 K, Glass
  molar entropy: 8.3 ± 0.51 J/K/mol
25 K, Crystal
  molar entropy: 14.04 ± 0.85 J/K/mol and 9.263 ± 0.56 J/K/mol and 12.76 ± 0.78 J/K/mol
25 K, Glass
  molar entropy: 12.73 ± 0.78 J/K/mol
30 K, Crystal
  molar entropy: 19.18 ± 1.2 J/K/mol and 13.59 ± 0.83 J/K/mol and 17.67 ± 1.1 J/K/mol
30 K, Glass
  molar entropy: 17.72 ± 1.1 J/K/mol
35 K, Crystal
  molar entropy: 24.62 ± 1.5 J/K/mol and 18.45 ± 1.1 J/K/mol and 23 ± 1.4 J/K/mol
35 K, Glass
  molar entropy: 23.14 ± 1.4 J/K/mol
40 K, Crystal
  molar entropy: 30.28 ± 1.8 J/K/mol and 23.75 ± 1.4 J/K/mol and 28.69 ± 1.7 J/K/mol
40 K, Glass
  molar entropy: 28.89 ± 1.8 J/K/mol
45 K, Crystal
  molar entropy: 36.11 ± 2.2 J/K/mol and 29.41 ± 1.8 J/K/mol and 34.67 ± 2.1 J/K/mol
45 K, Glass
  molar entropy: 34.85 ± 2.1 J/K/mol
50 K, Crystal
  molar entropy: 42.08 ± 2.6 J/K/mol and 35.35 ± 2.2 J/K/mol and 40.84 ± 2.5 J/K/mol
50 K, Glass
  molar entropy: 40.96 ± 2.5 J/K/mol
60 K, Crystal
  molar entropy: 54.27 ± 3.3 J/K/mol and 47.75 ± 2.9 J/K/mol and 53.56 ± 3.3 J/K/mol
60 K, Glass
  molar entropy: 53.5 ± 3.3 J/K/mol
70 K, Crystal
  molar entropy: 66.58 ± 4.1 J/K/mol and 60.58 ± 3.7 J/K/mol and 66.61 ± 4.1 J/K/mol
70 K, Glass
  molar entropy: 66.3 ± 4 J/K/mol
80 K, Crystal
  molar entropy: 78.9 ± 4.8 J/K/mol and 73.57 ± 4.5 J/K/mol and 79.79 ± 4.9 J/K/mol
80 K, Glass
  molar entropy: 79.14 ± 4.8 J/K/mol
90 K, Crystal
  molar entropy: 91.13 ± 5.6 J/K/mol and 86.51 ± 5.3 J/K/mol and 92.92 ± 5.7 J/K/mol
90 K, Glass
  molar entropy: 91.86 ± 5.6 J/K/mol
100 K, Crystal
  molar entropy: 103.17 ± 6.3 J/K/mol and 99.26 ± 6 J/K/mol and 105.89 ± 6.5 J/K/mol
100 K, Glass
  molar entropy: 104.37 ± 6.4 J/K/mol
110 K, Crystal
  molar entropy: 114.97 ± 7 J/K/mol and 111.76 ± 6.8 J/K/mol and 118.62 ± 7.2 J/K/mol
110 K, Glass
  molar entropy: 116.61 ± 7.1 J/K/mol
120 K, Crystal
  molar entropy: 126.51 ± 7.7 J/K/mol and 123.99 ± 7.5 J/K/mol and 131.07 ± 8 J/K/mol
120 K, Glass
  molar entropy: 128.56 ± 7.8 J/K/mol
130 K, Crystal
  molar entropy: 137.77 ± 8.4 J/K/mol and 135.92 ± 8.3 J/K/mol and 143.23 ± 8.7 J/K/mol
130 K, Glass
  molar entropy: 140.23 ± 8.5 J/K/mol
140 K, Crystal
  molar entropy: 148.77 ± 9.1 J/K/mol and 147.57 ± 9 J/K/mol and 155.11 ± 9.4 J/K/mol
140 K, Glass
  molar entropy: 151.61 ± 9.2 J/K/mol
150 K, Crystal
  molar entropy: 159.51 ± 9.7 J/K/mol and 158.95 ± 9.7 J/K/mol and 166.72 ± 10 J/K/mol
150 K, Glass
  molar entropy: 162.74 ± 9.9 J/K/mol
160 K, Crystal
  molar entropy: 170.01 ± 10 J/K/mol and 170.08 ± 10 J/K/mol and 178.07 ± 11 J/K/mol
160 K, Glass
  molar entropy: 173.62 ± 11 J/K/mol
170 K, Crystal
  molar entropy: 180.29 ± 11 J/K/mol and 180.98 ± 11 J/K/mol and 189.19 ± 12 J/K/mol
170 K, Glass
  molar entropy: 184.28 ± 11 J/K/mol
180 K, Crystal
  molar entropy: 190.36 ± 12 J/K/mol and 191.68 ± 12 J/K/mol and 200.09 ± 12 J/K/mol
180 K, Glass
  molar entropy: 194.75 ± 12 J/K/mol
190 K, Crystal
  molar entropy: 200.25 ± 12 J/K/mol and 202.19 ± 12 J/K/mol and 210.8 ± 13 J/K/mol
190 K, Glass
  molar entropy: 205.03 ± 12 J/K/mol
200 K, Crystal
  molar entropy: 209.96 ± 13 J/K/mol and 212.52 ± 13 J/K/mol and 221.34 ± 13 J/K/mol
200 K, Glass
  molar entropy: 215.14 ± 13 J/K/mol
210 K, Crystal
  molar entropy: 219.52 ± 13 J/K/mol and 222.71 ± 14 J/K/mol and 231.73 ± 14 J/K/mol
210 K, Glass
  molar entropy: 225.11 ± 14 J/K/mol
220 K, Crystal
  molar entropy: 228.95 ± 14 J/K/mol and 232.75 ± 14 J/K/mol and 241.97 ± 15 J/K/mol
220 K, Glass
  molar entropy: 234.95 ± 14 J/K/mol
230 K, Crystal
  molar entropy: 238.24 ± 15 J/K/mol and 242.68 ± 15 J/K/mol and 252.1 ± 15 J/K/mol
230 K, Glass
  molar entropy: 244.67 ± 15 J/K/mol
240 K, Crystal
  molar entropy: 247.43 ± 15 J/K/mol and 252.5 ± 15 J/K/mol and 262.12 ± 16 J/K/mol
240 K, Glass
  molar entropy: 254.28 ± 15 J/K/mol
250 K, Crystal
  molar entropy: 256.52 ± 16 J/K/mol and 262.22 ± 16 J/K/mol and 272.04 ± 17 J/K/mol
250 K, Glass
  molar entropy: 263.8 ± 16 J/K/mol
260 K, Crystal
  molar entropy: 265.53 ± 16 J/K/mol and 271.86 ± 17 J/K/mol and 281.89 ± 17 J/K/mol
260 K, Glass
  molar entropy: 273.23 ± 17 J/K/mol
270 K, Crystal
  molar entropy: 274.45 ± 17 J/K/mol and 281.43 ± 17 J/K/mol and 291.67 ± 18 J/K/mol
270 K, Glass
  molar entropy: 282.58 ± 17 J/K/mol
273.15 K, Crystal
  molar entropy: 277.25 ± 17 J/K/mol and 284.43 ± 17 J/K/mol and 294.74 ± 18 J/K/mol
273.15 K, Glass
  molar entropy: 285.51 ± 17 J/K/mol
280 K, Crystal
  molar entropy: 283.31 ± 17 J/K/mol and 290.94 ± 18 J/K/mol and 301.39 ± 18 J/K/mol
280 K, Glass
  molar entropy: 291.87 ± 18 J/K/mol
290 K, Crystal
  molar entropy: 292.12 ± 18 J/K/mol and 300.39 ± 18 J/K/mol and 311.06 ± 19 J/K/mol
290 K, Glass
  molar entropy: 301.09 ± 18 J/K/mol
298.15 K, Crystal
  molar entropy: 299.26 ± 18 J/K/mol and 308.06 ± 19 J/K/mol and 318.92 ± 19 J/K/mol
298.15 K, Glass
  molar entropy: 308.57 ± 19 J/K/mol
300 K, Crystal
  molar entropy: 300.87 ± 18 J/K/mol and 309.8 ± 19 J/K/mol and 320.7 ± 20 J/K/mol
300 K, Glass
  molar entropy: 310.26 ± 19 J/K/mol
